The values that follow come from patent US20240285554A1, “POLYVINYL ALCOHOL COMPOSITIONS AND METHODS OF MAKING AND USING THEM” (Emanate Biomedical, Inc., priority 2023, published 2024).

Each structure is given as a SMILES string.

In test [1] the test system is C. tropicalis ATCC 750. In words: Antimicrobial efficacy testing (modified AATCC 100 test). The test is classed as cell-based, Candida tropicalis. The following applies: for Average CFU/carrier / Log10 Reduction Compared to Control / Percent Reduction Compared to Control: C. tropicalis ATCC 750, contact time 30 min, study NG17964; for efficacy: tested against Candida albicans and Candida tropicalis.

The next test deals with bacteria and fungus. In words: Antimicrobial efficacy, choice of preservative concentration. The class given is cell-based. The settings on record: selected as the suitable preservative concentration. The text has this:
(§1) The CHG concentration of 0.05% w/w was the lowest dose showing strong efficacy against both bacteria and fungus and was therefore selected as the suitable preservative concentration.

Test [2] deals with C. tropicalis ATCC 750. The test can be described thus: Antimicrobial efficacy testing (modified AATCC 100 test). The test is classed as cell-based, Candida tropicalis.
From the text: as §1

The subject of the next test is P. aeruginosa ATCC 9027. The description is as above. The class given is cell-based, Pseudomonas aeruginosa. The following applies: for Log10 Reduction Compared to Control / Percent Reduction Compared to Control / Average CFU/carrier: P. aeruginosa ATCC 9027, study NG17598-A1; for Average CFU/carrier: limit of detection.
From the text: as §1

In test [3] the test system is gram positive bacteria and gram negative bacteria. In words: Zone of Inhibition (ZOI) testing. The test is classed as cell-based. The following applies: composition with 0.005%, 0.025%, 0.05%, 0.1%, and 0.15% w/w of CHG.
From the text: as §1

Another test concerns C. albicans ATCC 10231. The test can be described thus: Antimicrobial efficacy testing (modified AATCC 100 test). The following applies: contact time 30 min, study NG17964. The class given is cell-based, Candida albicans.
From the text: as §1

In another test the test system is S. aureus ATCC 6538. Described as above. The class given is cell-based, Staphylococcus aureus. The following applies: for Log10 Reduction Compared to Control / Percent Reduction Compared to Control / Average CFU/carrier: S. aureus ATCC 6538, study NG17598-A1; for Average CFU/carrier: limit of detection.
From the text: as §1

The subject of the next test is oral pathogenic bacteria. The settings on record: cited from earlier work.
Where [4] appears, read: C. tropicalis ATCC 750, CHG Conc 0.05 % w/w, contact time 30 min, study NG17964.
The mark [5] stands for this setting: CHG Conc 0.005 % w/w, contact time 30 min.
[6] abbreviates: CHG Conc 0.1 % w/w, contact time 60 min.
[7] abbreviates: CHG Conc 0.1 % w/w, contact time 24 hrs.

`N=C(NCCCCCCNC(=N)NC(=N)Nc1ccc(Cl)cc1)NC(=N)Nc1ccc(Cl)cc1.O=C(O)[C@H](O)[C@@H](O)[C@H](O)[C@H](O)CO.O=C(O)[C@H](O)[C@@H](O)[C@H](O)[C@H](O)CO` [CHG]: the “Average CFU/carrier” value in the test on C. tropicalis ATCC 750 [1] (CHG Conc 0.005 % w/w) is on record as 2.70E+04 CFU/carrier; in the test on C. tropicalis ATCC 750 [1] (CHG Conc 0.1 % w/w, limit of detection), <5.00E+00^1 CFU/carrier; in the test on C. tropicalis ATCC 750 [2] (C. tropicalis ATCC 750, CHG Conc 0.05 % w/w, contact time 30 min, study NG17964, limit of detection) it was <5.00E+00^1 CFU/carrier; in the test with P. aeruginosa ATCC 9027 (setting [5]), <5.00E+00^1 CFU/carrier; in the test with P. aeruginosa ATCC 9027 (setting [6]), <5.00E+00^1 CFU/carrier; in the test on P. aeruginosa ATCC 9027 (setting [7]), <5.00E+00^1 CFU/carrier. Besides, the “Average CFU/carrier” value is 1.00E+05 CFU/carrier with C. albicans ATCC 10231 (CHG Conc 0.005 % w/w); 2.48E+02 CFU/carrier with C. albicans ATCC 10231 (CHG Conc 0.05 % w/w); 7.50E+00 CFU/carrier in the test with C. albicans ATCC 10231 (CHG Conc 0.1 % w/w); <5.00E+00^1 CFU/carrier in the test with S. aureus ATCC 6538 (setting [5]); <5.00E+00^1 CFU/carrier in the test on S. aureus ATCC 6538 (setting [6]); <5.00E+00^1 CFU/carrier in the test with S. aureus ATCC 6538 (setting [7]). For the same molecule, the “Log10 Reduction Compared to Control” value with C. tropicalis ATCC 750 [1] (CHG Conc 0.005 % w/w) is given as 0.73; with C. tropicalis ATCC 750 [1] (CHG Conc 0.1 % w/w) it was over 4.46; in the test with C. tropicalis ATCC 750 [2] (setting [4]), over 4.46; in the test with P. aeruginosa ATCC 9027 (setting [5]), over 4.43; in the test on P. aeruginosa ATCC 9027 (setting [6]), over 4.53; in the test with P. aeruginosa ATCC 9027 (setting [7]), over 4.70. The “Log10 Reduction Compared to Control” value was 0.25 in the test on C. albicans ATCC 10231 (CHG Conc 0.005 % w/w); 2.86 in the test with C. albicans ATCC 10231 (CHG Conc 0.05 % w/w); 4.37 in the test with C. albicans ATCC 10231 (CHG Conc 0.1 % w/w); over 4.40 in the test on S. aureus ATCC 6538 (setting [5]); over 4.57 with S. aureus ATCC 6538 (setting [6]); over 4.58 in the test on S. aureus ATCC 6538 (setting [7]). Besides, the “Percent Reduction Compared to Control” value is recorded as 81.38% with C. tropicalis ATCC 750 [1] (CHG Conc 0.005 % w/w); over 99.997% in the test on C. tropicalis ATCC 750 [1] (CHG Conc 0.1 % w/w); over 99.997% in the test on C. tropicalis ATCC 750 [2] (setting [4]); over 99.996% with P. aeruginosa ATCC 9027 (setting [5]); over 99.996% in the test with P. aeruginosa ATCC 9027 (setting [6]); over 99.998% with P. aeruginosa ATCC 9027 (setting [7]). The “Percent Reduction Compared to Control” value is on record as 43.52% in the test with C. albicans ATCC 10231 (CHG Conc 0.005 % w/w); 99.86% in the test on C. albicans ATCC 10231 (CHG Conc 0.05 % w/w); 99.996% with C. albicans ATCC 10231 (CHG Conc 0.1 % w/w); over 99.996% in the test with S. aureus ATCC 6538 (setting [5]); over 99.997% with S. aureus ATCC 6538 (setting [6]); over 99.997% in the test with S. aureus ATCC 6538 (setting [7]). Besides, the efficacy with C. tropicalis ATCC 750 [1] (CHG 0.005% w/w) is recorded as 81.38%; in the test on C. tropicalis ATCC 750 [1] (CHG 0.1% w/w) it was 99.997%; in the test on C. tropicalis ATCC 750 [2] (tested against Candida albicans and Candida tropicalis, CHG 0.05% w/w), 99.997%. In addition, the “lowest dose showing strong efficacy against both bacteria and fungus” value in the test with bacteria and fungus stood at 0.05 % w/w. The “reduction of the concentration of microorganisms” value in the test with P. aeruginosa ATCC 9027 (Pseudomonas aeruginosa, CHG 0.05% w/w, after 30 min contact time) is recorded as “more than 99.99%”; in the test with S. aureus ATCC 6538 (Staphylococcus aureus, CHG 0.05% w/w, after 30 min contact time) it was “more than 99.99%”. Moreover, the “reduction of the concentration of the microorganisms” value with P. aeruginosa ATCC 9027 (Pseudomonas aeruginosa, CHG 0.1% w/w, after 60 min and 24 hour contact time) is “more than 99.99%”; with S. aureus ATCC 6538 (Staphylococcus aureus, CHG 0.1% w/w, after 60 min and 24 hour contact time) it was “more than 99.99%”. In addition, in test [3], the “effect in Zone of Inhibition (ZOI) testing” value is given as “showed inhibitory effects”.

As for `[H]/N=C(\N/C(=N/[H])NCCCCCCNC(=N)NC(=N)Nc1ccc(Cl)cc1)Nc1ccc(Cl)cc1` [Chlorhexidine, chlorhexidine], the MIC in the test on oral pathogenic bacteria (against oral pathogenic bacteria) is reported as 0.0125 % w/v. Besides, the MBC in the test with oral pathogenic bacteria (at 10 minutes) is 0.5 % w/v.
